In US12635715B2, “Isofucosterol and combinations of isofucosterol and a multiplicity of sterols as a nutrient for animals” (APIX BIOSCIENCES, priority 2022, dated 2026):

System: honeybee colonies (Apidea nucs)
Test: Brood production in Apidea nucs fed isofucosterol diets (Example 3)
Type: in vivo, honeybees
Conditions: as the concentration of isofucosterol in the diet increased; N>3 colonies/treatment
Experimental: Honeybees: Fully functional insulated styrofoam Apidea nucs comprised 5 mini frames populated with adult workers and 1 mated laying queen bee were populated with 300-400 ml of young adult workers (˜N<1.000 bees of mixed ages).
Each treatment was tested with 3-6 colonies; each colony was fed with a 60-100 g patty (solid diet) on the top feeder fitted with a mesh floor. Diet was fed on the first day and again on day 6; the quantity consumed was measured on day 6 and day 15. If no larvae or eggs/queen are observed by day 6 then the experiment is terminated. The number of capped brood cells was counted on day 15. The number of bee seams was estimated during each inspection. Sugar syrup (34%) and water was provided in feeders inside the tent to prevent carbohydrate starvation and to stimulate foraging activity.
In Example 3, bees were fed with a diet containing 10-18% protein, 6% fat, 1% vitamins/minerals and >75% carbohydrates.
As the concentration of isofucosterol increased, the amount of brood produced in each colony increased (N>3 colonies/treatment). The pupae, and the number of new adults was counted over the entire 10-week period.

C/C=C(/CC[C@@H](C)[C@H]1CC[C@H]2[C@@H]3CC=C4C[C@@H](O)CC[C@]4(C)[C@H]3CC[C@]12C)C(C)C [isofucosterol, Isofucosterol]
amount of brood produced in each colony: increased
